Patent publication US20260232682A1, “GSPT1 DEGRADER COMPOUNDS” (Captor Therapeutics S.A., priority 2023, published 2026)

Assays:
[1] = molecular target: T1, GSPT1-HiBiT protein in GSPT1-HiBiT HEK293 cells (Homo sapiens, UniProt P15170+Q96SW2); assay: GSPT1 degradation assay using HiBiT system (Nano-Glo HiBiT lytic assay); assay type: cell-based; conditions: 6 hours treatment; for DC50: read-out: HiBiT lytic assay Geomean absolute DC50
T1 construct: endogenous in cells; host or cells: HEK293 (CRISPR/Cas9 knock-in of HiBiT at the GSPT1 locus)
T1 sequence (P15170 whole entry): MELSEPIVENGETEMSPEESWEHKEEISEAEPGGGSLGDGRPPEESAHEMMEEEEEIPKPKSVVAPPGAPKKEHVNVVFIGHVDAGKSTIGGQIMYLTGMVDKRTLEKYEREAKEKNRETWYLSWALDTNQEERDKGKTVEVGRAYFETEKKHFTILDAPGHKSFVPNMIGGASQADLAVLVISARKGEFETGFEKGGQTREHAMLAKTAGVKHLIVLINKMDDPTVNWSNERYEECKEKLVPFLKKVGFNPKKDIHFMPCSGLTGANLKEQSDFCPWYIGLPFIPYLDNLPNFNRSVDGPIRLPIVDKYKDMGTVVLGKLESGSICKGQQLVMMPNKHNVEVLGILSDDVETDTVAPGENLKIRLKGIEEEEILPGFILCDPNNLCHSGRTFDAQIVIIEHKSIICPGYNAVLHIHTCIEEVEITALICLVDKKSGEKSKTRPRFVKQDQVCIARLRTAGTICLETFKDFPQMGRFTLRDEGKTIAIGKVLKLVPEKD
T1 sequence (Q96SW2 whole entry): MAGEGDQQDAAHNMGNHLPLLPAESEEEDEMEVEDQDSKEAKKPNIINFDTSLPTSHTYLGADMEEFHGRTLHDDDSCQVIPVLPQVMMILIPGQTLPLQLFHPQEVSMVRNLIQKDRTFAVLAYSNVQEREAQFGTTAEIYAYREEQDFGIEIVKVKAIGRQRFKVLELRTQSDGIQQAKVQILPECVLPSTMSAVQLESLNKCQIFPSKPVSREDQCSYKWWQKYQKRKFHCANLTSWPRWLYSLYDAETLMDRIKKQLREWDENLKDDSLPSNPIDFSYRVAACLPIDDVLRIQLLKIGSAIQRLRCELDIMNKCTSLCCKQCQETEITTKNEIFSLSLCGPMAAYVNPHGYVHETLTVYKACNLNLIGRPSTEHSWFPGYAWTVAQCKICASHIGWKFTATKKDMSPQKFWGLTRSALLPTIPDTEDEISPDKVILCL
T1 sequence (Q16531 whole entry partner): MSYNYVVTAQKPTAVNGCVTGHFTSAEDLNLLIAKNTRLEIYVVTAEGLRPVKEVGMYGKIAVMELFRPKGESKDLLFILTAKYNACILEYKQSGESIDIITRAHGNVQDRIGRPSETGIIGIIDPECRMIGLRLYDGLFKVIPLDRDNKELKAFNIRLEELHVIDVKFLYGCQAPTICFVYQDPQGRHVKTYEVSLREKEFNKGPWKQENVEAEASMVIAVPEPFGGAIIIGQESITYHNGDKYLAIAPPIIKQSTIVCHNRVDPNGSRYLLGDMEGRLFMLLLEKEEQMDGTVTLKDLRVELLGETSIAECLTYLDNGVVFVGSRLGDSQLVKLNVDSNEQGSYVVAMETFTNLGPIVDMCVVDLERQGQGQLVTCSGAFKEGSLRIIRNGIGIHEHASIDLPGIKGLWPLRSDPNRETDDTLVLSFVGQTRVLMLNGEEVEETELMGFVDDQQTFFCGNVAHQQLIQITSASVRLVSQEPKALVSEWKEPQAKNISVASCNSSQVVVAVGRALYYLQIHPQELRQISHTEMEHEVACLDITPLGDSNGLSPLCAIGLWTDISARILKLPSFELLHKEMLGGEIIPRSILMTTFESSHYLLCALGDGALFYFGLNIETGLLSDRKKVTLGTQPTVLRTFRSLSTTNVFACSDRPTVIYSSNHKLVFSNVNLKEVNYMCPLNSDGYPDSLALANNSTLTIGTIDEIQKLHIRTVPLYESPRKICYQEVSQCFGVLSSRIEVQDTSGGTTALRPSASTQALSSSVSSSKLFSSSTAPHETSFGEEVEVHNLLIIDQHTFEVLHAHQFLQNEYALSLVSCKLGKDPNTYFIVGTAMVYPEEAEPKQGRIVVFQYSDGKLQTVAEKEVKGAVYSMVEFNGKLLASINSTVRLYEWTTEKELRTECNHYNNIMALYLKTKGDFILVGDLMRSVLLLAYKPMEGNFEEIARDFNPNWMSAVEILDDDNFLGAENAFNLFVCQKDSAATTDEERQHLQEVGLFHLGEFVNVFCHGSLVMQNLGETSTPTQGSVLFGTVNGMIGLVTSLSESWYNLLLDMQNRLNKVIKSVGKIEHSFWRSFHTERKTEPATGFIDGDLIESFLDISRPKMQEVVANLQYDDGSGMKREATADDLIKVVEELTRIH
Description: The effect of selected compounds of the invention on GSPT1 protein levels was investigated, using the GSPT1-HiBiT HEK293 cell line and the Nano-Glo HiBiT degradation assay protocol below.
GSPT1-HiBiT HEK293 cells were generated in-house using the HEK293 parental cells (ATCC, cat. no 70016364) and the CRISPR/Cas9 system. HEK293 cells were transformed with pSpCas9-BB-2A-Puro v2.0 plasmid carrying gRNA targeting the C-terminus of GSPT1 and ssODN template containing the HiBiT tag sequence with flanking homology sequences. Neon Transfection System (Thermo Fisher Scientific) was used for electroporation. HEK293 GSPT1-HiBiT cells were cultured with DMEM Glutamax (Gibco) supplemented with 10% heat inactivated FBS (Gibco). After transfection the culture medium was changed to DMEM Glutamax with 10% heat-inactivated FBS and 1% Penicillin-Streptomycin (Biowest) supplemented with Puromycin (2 μg/ml; Invivogen) for clonal selection. In order to isolate single cell clones for further validation and analysis, limiting dilution cloning in 96-well plates was performed. When the single clones reached confluency, HiBiT Lytic Assay (Promega) was performed in order to identify HiBiT positive clones. The clone selected for further studies was verified and validated using genotyping and HiBiT Blotting (Promega).
Cells were maintained in DMEM Glutamax medium, supplemented with 1% penicillin/streptomycin and 10% Fetal Bovine Serum (FBS) at 37° C., 5% CO2. Compounds were stored frozen as 20 mM DMSO stocks.
For the Nano-Glo HiBiT assay, cells were seeded onto 384-well white solid bottom plate at 2×10^3 cells/well in 40 μL using the Agilent BioTek MultiFlo FX Multimode Dispenser and incubated overnight. Following overnight incubation (37° C., 5% CO2) cells were treated with the test compounds and vehicle only (DMSO) control using the Echo 555 Liquid Handler. Twelve data-point compound titration curve with concentrations ranging from 10 μM to 0.03 nM was used. Final DMSO concentration was kept constant at 0.25% v/v across the assay plate. After 6 hours of incubation (37° C., 5% CO2), plates were removed from the incubator and let to equilibrate to RT. Luminescent signal detection was conducted using the Nano-Glo HiBiT Lytic Detection System (Promega, cat. nr N3050). Nano-Glo HiBiT Lytic Reagent was prepared freshly by diluting the LgBiT Protein (1:100 vol/vol) and the Nano-Glo HiBiT Lytic Substrate (1:50 vol/vol) in the relevant volume of the Nano-Glo HiBiT Lytic Buffer. 40 μL of the HiBiT Lytic Reagent was added per well, plates were shaken to facilitate lysis (350 rpm, 5 min, RT) and incubated in the dark for the following 10 min. Luminescence was read using the PHERAstar multimode plate reader (BMG LABTECH). The raw data (the relative luminescence unit values, RLU) were uploaded under the relevant protocol and analysed in CDDVault data management platform. Luminescence (RLU) values were normalized to the controls, and reported absolute DC50 values and Dmax values were calculated in CDDVault using non-linear regression and appropriate equations.

[2] = molecular target: CRBN/DDB1 protein complex (Homo sapiens, UniProt Q96SW2); assay: CRBN displacement TR-FRET assay; conditions: Thalidomide-Red tracer, 6×His-CRBN/DDB1; read-out: CRBN binding Ki
Chain of CRBN/DDB1 protein complex (Q96SW2 whole entry, species assumed): as the sequence (Q96SW2 whole entry) above
Chain of CRBN/DDB1 protein complex (Q16531 whole entry partner, species assumed): as the sequence (Q16531 whole entry partner) above
Method in brief: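 Test compound at various concentrations competed with 6.8 nM Thalidomide-Red tracer for 5 nM 6×His-CRBN/DDB1, detected with 0.5 nM anti-His-Eu cryptate in buffer with 1 mM DTT and 1% DMSO. Incubation ran 180 min at room temperature with a time-resolved fluorescence read-out. IC50 values were converted to Ki by Cheng–Prusoff using tracer Kd and protein and tracer concentrations.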

[3] = molecular target: [CK1α]-[compound]-[CRBN/DDB1] ternary complex (Homo sapiens, UniProt P48729+Q96SW2); assay: AlphaLISA assay for off-target recruitment detection, CK1α; assay type: binding; conditions: 1 μM compound; normalized to FPFT-2216; read-out: Normalized ternary complex response, CK1α
Chain of [CK1α]-[compound]-[CRBN/DDB1] ternary complex (P48729 whole entry): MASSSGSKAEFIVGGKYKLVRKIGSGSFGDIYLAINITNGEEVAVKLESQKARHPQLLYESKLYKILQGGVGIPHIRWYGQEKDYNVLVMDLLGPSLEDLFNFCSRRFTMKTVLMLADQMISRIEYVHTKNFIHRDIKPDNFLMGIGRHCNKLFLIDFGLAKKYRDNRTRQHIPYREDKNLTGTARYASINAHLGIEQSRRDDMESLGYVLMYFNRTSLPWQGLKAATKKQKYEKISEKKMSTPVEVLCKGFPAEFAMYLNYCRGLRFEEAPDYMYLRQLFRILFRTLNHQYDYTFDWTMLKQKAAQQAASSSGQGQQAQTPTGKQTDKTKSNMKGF
Chain of [CK1α]-[compound]-[CRBN/DDB1] ternary complex (Q96SW2 whole entry): as the sequence (Q96SW2 whole entry) above
Chain of [CK1α]-[compound]-[CRBN/DDB1] ternary complex (Q16531 whole entry partner): as the sequence (Q16531 whole entry partner) above
Method in brief: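 Neo-substrate with 40 μg/ml donor beads and 200 nM 6×His-CRBN/DDB1 with 40 μg/ml anti-His acceptor beads were each prepared in PBS pH 7.4 with Tween-20 and 1 mM DTT, preincubated 30 min at RT, then mixed. Compounds at 2% DMSO were incubated 30 min at 25 °C, read at 680/615 nm, and normalised between DMSO background and reference glue maximum.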

SMILES | Dmax [1] [%] | DC50 [1] [nM] | Ki [2] [nM] | activation at 1 µM [3] [%]
Cc1ccc(NC(=O)OCc2ccc3cc(C4CCC(=O)NC4=O)c(C)nc3c2)c(Cl)c1Cl (centres unmarked) [Compound 54, (3-(2,6-dioxopiperidin-3-yl)-2-methylquinolin-7-yl)methyl (2,3-dichloro-4-methylphenyl)carbamate] | ≥ 75 | 10 to 50 | 500 to 1000 | < 10
Cc1nc2cc(COC(=O)Nc3cc(C(C)(C)C)no3)ccc2cc1C1CCC(=O)NC1=O (centres unmarked) [Compound 30, (3-(2,6-dioxopiperidin-3-yl)-2-methylquinolin-7-yl)methyl (3-(tert-butyl)isoxazol-5-yl)carbamate] | ≥ 75 | < 10 | 500 to 1000 | < 10
Cc1nc2cc(COC(=O)Nc3ccc(-c4ccccc4)nc3)ccc2cc1C1CCC(=O)NC1=O (centres unmarked) [Compound 20, (3-(2,6-dioxopiperidin-3-yl)-2-methylquinolin-7-yl)methyl (6-phenylpyridin-3-yl)carbamate] | ≥ 75 | < 10 | < 500 | < 10
COc1cnc(NC(=O)OCc2ccc3cc(C4CCC(=O)NC4=O)c(C)nc3c2)cn1 (centres unmarked) [Compound 59, (3-(2,6-dioxopiperidin-3-yl)-2-methylquinolin-7-yl)methyl (5-methoxypyrazin-2-yl)carbamate] | ≥ 75 | 10 to 50 | < 500 | < 10
Cc1ncc(NC(=O)OCc2ccc3cc(C4CCC(=O)NC4=O)c(C)nc3c2)cc1Cl (centres unmarked) [Compound 58, (3-(2,6-dioxopiperidin-3-yl)-2-methylquinolin-7-yl)methyl (5-chloro-6-methylpyridin-3-yl)carbamate] | ≥ 75 | < 10 | 500 to 1000 | < 10
Cc1nc2cc(COC(=O)Nc3ccc4c(c3)OCCO4)ccc2cc1C1CCC(=O)NC1=O (centres unmarked) [Compound 15, (3-(2,6-dioxopiperidin-3-yl)-2-methylquinolin-7-yl)methyl (2,3-dihydrobenzo[b][1,4]dioxin-6-yl)carbamate] | ≥ 75 | < 10 | > 1000 | < 10
Cc1ccc(NC(=O)OCc2ccc3c(C)c(C4CCC(=O)NC4=O)c(C)nc3c2)cc1Cl (centres unmarked) [Compound 44, (3-(2,6-dioxopiperidin-3-yl)-2,4-dimethylquinolin-7-yl)methyl (3-chloro-4-methylphenyl)carbamate] | ≥ 75 | < 10 | < 500 | < 10
Cc1ccc(NC(=O)OCc2ccc3cc(N4CCC(=O)NC4=O)c(C)nc3c2)cc1Cl [Compound 28, (3-(2,4-dioxotetrahydropyrimidin-1(2H)-yl)-2-methylquinolin-7-yl)methyl (3-chloro-4-methylphenyl)carbamate] | ≥ 75 | 10 to 50 | 500 to 1000 | < 10
Cc1nc2cc(CNC(=O)Nc3cc(C(C)(C)C)no3)ccc2cc1N1CCC(=O)NC1=O [Compound 64, 1-(3-(tert-butyl)isoxazol-5-yl)-3-((3-(2,4-dioxotetrahydropyrimidin-1(2H)-yl)-2-methylquinolin-7-yl)methyl)urea] | ≥ 75 | > 100 | < 500 | < 10
Cc1nc2cc(COC(=O)Nc3cc(C(C)(C)C)n[nH]3)ccc2cc1C1CCC(=O)NC1=O (centres unmarked) [Compound 75, (3-(2,6-dioxopiperidin-3-yl)-2-methylquinolin-7-yl)methyl (3-(tert-butyl)-1H-pyrazol-5-yl)carbamate] | ≥ 75 | 10 to 50 | > 1000 | < 10
Cc1nc2cc(COC(=O)Nc3cc(C(C)(C)C)no3)ccc2cc1N1CCC(=O)NC1=O [Compound 72, (3-(2,4-dioxotetrahydropyrimidin-1(2H)-yl)-2-methylquinolin-7-yl)methyl (3-(tert-butyl)isoxazol-5-yl)carbamate] | ≥ 75 | 10 to 50 | 500 to 1000 | < 10
Cc1ccc(NC(=O)OCc2ccc3cc([C@@H]4CCC(=O)NC4=O)c(C)nc3c2)cc1Cl [Compound 38, (3-(2,6-dioxopiperidin-3-yl)-2-methylquinolin-7-yl)methyl (3-chloro-4-methylphenyl)carbamate] | ≥ 75 | 50 to 100 | > 1000 | < 10
Cc1nc2cc(COC(=O)Nc3cccc(-c4ccccc4)c3)ccc2cc1C1CCC(=O)NC1=O (centres unmarked) [Compound 46, (3-(2,6-dioxopiperidin-3-yl)-2-methylquinolin-7-yl)methyl [1,1′-biphenyl]-3-ylcarbamate] | ≥ 75 | 10 to 50 | 500 to 1000 | < 10
Cc1nc2cc(COC(=O)Nc3cc(OC(F)(F)F)ccc3F)ccc2cc1C1CCC(=O)NC1=O (centres unmarked) [Compound 6, (3-(2,6-dioxopiperidin-3-yl)-2-methylquinolin-7-yl)methyl (2-fluoro-5-(trifluoromethoxy)phenyl)carbamate] | ≥ 75 | 10 to 50 | > 1000 | < 10
